One block for each compound: values may come before it. Active and inactive are the calls of the source.
Experiments:
[1] = target: Peroxisome proliferator-activated receptor gamma/Nuclear receptor coactivator 2 (Homo sapiens, UniProt P37231); experiment: (§1) TR-FRET dose response biochemical High Throughput Screening assay for agonists of the steroid receptor coactivator 2 (SRC-2) recruitment by the peroxisome proliferator-activated receptor gamma (PPAR gamma): non-selective agonists. [Related pubchem assays: 1297, 1032 ]; type: functional
[2] = target: Peroxisome proliferator-activated receptor gamma/Nuclear receptor coactivator 3 (Homo sapiens, UniProt P37231); experiment: as §1, with “3 (SRC-3)” for “2 (SRC-2)”, “1301 (Confirmation screen.), 1048 (Primary screen.)]” for “1297, 1032 ]”; type: functional
[3] = target: Peroxisome proliferator-activated receptor gamma/Nuclear receptor coactivator 1 (Homo sapiens, UniProt P37231); experiment: as §1, with “1 (SRC-1)” for “2 (SRC-2)”, “assays (depositor defined):AID1300, AID1808, AID504735, AID631]” for “assays: 1297, 1032 ]”; type: protein assay
[4] = target: Ras and Rab interactor 1/Tyrosine-protein kinase ABL1 (Homo sapiens, UniProt P00519+Q13671); type: functional;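 also: biochemical TR-FRET dose-response test measuring inhibition of binding between Rin1 and Abl proteins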
Cytochrome P450 3A4 = Cytochrome P450 3A4 (Homo sapiens, UniProt P08684);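 also: CYP3A4 tested as one member of a cytochrome P450 panel screen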
Cytochrome P450 2C19 = Cytochrome P450 2C19 (Homo sapiens, UniProt P33261); experiment: Cytochrome panel assay with activity outcomes. Panel member name: p450-cyp2c19 Compounds with AC50 equal or less than 10 uM are considered active; type: functional
Cytochrome P450 2D6 = Cytochrome P450 2D6 (Homo sapiens, UniProt P10635);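 also: CYP2D6 member of a cytochrome P450 panel assay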
Caspase-3 = target: T1, Caspase-3 (Homo sapiens, UniProt P42574); type: functional;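 also: Dose-response selectivity test against caspase-3 for candidate inhibitors of sentrin-specific proteases (SENPs)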
T1 sequence (P42574 whole entry): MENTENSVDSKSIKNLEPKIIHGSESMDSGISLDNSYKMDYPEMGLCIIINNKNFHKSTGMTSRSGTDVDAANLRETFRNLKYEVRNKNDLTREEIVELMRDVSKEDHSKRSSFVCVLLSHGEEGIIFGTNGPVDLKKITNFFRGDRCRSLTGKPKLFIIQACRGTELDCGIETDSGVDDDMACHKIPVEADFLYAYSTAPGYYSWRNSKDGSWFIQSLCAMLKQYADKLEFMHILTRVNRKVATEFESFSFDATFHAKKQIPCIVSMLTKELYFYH

[5] = target: T2, Sentrin-specific protease 6 (Homo sapiens, UniProt Q9GZR1); type: functional;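 also: Luminescence-based dose-response confirmatory assay of SENP6 inhibition, following up an ultra-high-throughput screen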
T2 sequence (Q9GZR1 whole entry): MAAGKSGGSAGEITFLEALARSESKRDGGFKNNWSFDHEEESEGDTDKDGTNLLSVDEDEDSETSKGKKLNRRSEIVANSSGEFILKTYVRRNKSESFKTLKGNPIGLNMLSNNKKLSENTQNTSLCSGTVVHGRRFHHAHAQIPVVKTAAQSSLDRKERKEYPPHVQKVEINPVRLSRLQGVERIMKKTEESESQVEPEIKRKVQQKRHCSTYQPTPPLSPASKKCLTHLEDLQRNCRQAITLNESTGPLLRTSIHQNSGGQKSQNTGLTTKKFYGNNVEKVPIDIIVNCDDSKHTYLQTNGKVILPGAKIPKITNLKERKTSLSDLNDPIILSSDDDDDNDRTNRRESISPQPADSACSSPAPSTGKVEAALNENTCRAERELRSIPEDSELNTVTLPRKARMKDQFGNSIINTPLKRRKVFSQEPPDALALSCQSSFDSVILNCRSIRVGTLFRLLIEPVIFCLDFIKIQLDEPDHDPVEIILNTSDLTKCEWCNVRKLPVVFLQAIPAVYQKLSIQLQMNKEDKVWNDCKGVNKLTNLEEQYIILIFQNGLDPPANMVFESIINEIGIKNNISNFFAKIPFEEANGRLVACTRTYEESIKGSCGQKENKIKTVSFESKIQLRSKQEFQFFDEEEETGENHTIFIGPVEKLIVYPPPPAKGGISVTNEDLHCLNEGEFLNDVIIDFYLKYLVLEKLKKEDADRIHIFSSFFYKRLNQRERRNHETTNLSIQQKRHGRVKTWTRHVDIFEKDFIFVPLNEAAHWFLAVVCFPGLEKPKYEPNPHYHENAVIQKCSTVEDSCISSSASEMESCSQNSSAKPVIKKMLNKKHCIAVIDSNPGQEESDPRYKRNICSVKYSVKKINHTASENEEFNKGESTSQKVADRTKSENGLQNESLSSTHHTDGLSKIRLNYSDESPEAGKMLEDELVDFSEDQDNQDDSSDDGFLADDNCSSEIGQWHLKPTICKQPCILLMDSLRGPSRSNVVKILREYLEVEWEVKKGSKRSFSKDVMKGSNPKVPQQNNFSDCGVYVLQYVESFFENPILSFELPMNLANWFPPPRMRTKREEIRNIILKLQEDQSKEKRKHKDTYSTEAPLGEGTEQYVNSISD

[6] = target: T3, Sentrin-specific protease 8 (Homo sapiens, UniProt Q96LD8); type: functional;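 also: luminescence read-out of SENP8 inhibition, dose-response confirmation following an ultra-high-throughput screen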
T3 sequence (Q96LD8 whole entry): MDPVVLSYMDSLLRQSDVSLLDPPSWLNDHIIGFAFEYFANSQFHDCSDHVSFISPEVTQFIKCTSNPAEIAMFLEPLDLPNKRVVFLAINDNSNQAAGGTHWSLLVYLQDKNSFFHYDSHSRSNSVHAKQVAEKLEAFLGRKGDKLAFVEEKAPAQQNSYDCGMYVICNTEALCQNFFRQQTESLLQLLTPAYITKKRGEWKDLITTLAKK

[7] = target: T4, Sentrin-specific protease 7 (Homo sapiens, UniProt Q9BQF6); type: functional;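 also: Luminescence-based dose-response confirmation of ultra-high-throughput screening hits, measuring inhibition of SENP7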
T4 sequence (Q9BQF6 whole entry): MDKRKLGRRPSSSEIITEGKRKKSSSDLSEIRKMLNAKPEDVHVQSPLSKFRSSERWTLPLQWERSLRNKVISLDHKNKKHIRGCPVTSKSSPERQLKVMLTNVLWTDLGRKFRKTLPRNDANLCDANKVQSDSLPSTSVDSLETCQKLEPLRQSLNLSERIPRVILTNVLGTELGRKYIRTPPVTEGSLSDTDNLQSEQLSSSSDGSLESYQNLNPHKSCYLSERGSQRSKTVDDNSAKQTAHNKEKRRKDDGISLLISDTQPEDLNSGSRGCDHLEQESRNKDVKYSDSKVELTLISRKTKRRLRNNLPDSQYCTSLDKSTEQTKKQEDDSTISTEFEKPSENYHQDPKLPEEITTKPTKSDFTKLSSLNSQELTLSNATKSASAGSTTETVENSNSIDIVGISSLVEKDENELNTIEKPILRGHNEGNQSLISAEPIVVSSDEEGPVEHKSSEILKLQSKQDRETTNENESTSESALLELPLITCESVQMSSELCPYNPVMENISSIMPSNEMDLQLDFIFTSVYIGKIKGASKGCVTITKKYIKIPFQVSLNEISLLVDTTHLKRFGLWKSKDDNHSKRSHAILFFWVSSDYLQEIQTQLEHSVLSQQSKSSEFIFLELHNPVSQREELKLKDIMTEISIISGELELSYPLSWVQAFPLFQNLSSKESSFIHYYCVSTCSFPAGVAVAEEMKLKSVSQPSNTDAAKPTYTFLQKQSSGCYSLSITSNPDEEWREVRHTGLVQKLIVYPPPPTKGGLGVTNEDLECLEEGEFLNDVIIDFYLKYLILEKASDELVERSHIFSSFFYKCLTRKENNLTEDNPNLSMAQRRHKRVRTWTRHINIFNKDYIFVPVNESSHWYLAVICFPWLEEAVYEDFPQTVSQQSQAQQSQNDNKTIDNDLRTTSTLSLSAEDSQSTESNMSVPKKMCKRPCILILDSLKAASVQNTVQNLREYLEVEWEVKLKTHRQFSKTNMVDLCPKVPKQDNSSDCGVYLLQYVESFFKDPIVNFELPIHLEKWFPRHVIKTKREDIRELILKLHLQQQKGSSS

Cytochrome P450 2C9 = Cytochrome P450 2C9 (Homo sapiens, UniProt P11712)
SN12K1 = experiment: cells; type: functional; details: Homo sapiens
P388 = experiment: cells; type: functional; details: Mus musculus;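 also: compound exposure lasted 48 hours before growth was measured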

Chain of Cytochrome P450 3A4 (P08684 whole entry): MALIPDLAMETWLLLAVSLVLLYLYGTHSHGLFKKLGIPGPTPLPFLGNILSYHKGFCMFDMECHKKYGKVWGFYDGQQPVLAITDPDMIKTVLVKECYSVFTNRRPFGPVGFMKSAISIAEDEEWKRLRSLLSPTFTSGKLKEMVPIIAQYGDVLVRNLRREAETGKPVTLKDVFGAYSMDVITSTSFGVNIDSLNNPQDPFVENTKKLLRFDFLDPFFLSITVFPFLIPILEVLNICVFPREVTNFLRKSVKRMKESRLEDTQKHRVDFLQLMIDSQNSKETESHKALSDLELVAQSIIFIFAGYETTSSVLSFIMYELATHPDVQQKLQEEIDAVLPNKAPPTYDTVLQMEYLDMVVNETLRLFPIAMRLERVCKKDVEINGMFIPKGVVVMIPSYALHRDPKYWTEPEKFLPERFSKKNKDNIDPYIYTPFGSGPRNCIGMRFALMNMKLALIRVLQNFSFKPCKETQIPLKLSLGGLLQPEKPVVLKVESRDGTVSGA
Chain of Cytochrome P450 2C19 (P33261 whole entry): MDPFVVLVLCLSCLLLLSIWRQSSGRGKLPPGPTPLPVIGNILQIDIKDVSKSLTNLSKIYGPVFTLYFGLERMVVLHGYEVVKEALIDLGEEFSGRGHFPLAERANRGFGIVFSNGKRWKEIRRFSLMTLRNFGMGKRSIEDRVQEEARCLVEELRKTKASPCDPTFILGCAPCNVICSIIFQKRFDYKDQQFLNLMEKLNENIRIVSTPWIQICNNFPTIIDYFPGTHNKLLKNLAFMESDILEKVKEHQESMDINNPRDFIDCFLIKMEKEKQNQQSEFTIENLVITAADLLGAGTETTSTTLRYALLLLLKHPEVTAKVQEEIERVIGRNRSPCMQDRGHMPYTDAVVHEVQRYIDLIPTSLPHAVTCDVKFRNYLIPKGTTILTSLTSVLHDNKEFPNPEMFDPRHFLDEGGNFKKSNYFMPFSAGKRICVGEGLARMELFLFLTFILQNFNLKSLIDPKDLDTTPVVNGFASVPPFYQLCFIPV
Chain of Peroxisome proliferator-activated receptor gamma/Nuclear receptor coactivator 1 (P37231 whole entry): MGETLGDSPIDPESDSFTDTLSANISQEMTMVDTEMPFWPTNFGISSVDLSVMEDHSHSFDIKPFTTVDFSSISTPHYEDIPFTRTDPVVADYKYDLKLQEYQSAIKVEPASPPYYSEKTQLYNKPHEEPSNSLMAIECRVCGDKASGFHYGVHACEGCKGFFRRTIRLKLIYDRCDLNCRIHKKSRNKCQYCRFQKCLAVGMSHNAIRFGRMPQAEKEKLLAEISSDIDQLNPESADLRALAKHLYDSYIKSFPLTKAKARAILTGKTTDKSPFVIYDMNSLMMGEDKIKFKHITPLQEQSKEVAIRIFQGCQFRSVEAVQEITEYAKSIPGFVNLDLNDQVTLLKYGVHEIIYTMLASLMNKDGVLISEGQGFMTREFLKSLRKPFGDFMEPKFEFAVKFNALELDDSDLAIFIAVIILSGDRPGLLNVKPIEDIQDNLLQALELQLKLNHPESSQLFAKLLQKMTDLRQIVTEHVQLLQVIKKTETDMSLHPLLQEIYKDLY
Chain of Peroxisome proliferator-activated receptor gamma/Nuclear receptor coactivator 1 (Q15788 whole entry, further chain): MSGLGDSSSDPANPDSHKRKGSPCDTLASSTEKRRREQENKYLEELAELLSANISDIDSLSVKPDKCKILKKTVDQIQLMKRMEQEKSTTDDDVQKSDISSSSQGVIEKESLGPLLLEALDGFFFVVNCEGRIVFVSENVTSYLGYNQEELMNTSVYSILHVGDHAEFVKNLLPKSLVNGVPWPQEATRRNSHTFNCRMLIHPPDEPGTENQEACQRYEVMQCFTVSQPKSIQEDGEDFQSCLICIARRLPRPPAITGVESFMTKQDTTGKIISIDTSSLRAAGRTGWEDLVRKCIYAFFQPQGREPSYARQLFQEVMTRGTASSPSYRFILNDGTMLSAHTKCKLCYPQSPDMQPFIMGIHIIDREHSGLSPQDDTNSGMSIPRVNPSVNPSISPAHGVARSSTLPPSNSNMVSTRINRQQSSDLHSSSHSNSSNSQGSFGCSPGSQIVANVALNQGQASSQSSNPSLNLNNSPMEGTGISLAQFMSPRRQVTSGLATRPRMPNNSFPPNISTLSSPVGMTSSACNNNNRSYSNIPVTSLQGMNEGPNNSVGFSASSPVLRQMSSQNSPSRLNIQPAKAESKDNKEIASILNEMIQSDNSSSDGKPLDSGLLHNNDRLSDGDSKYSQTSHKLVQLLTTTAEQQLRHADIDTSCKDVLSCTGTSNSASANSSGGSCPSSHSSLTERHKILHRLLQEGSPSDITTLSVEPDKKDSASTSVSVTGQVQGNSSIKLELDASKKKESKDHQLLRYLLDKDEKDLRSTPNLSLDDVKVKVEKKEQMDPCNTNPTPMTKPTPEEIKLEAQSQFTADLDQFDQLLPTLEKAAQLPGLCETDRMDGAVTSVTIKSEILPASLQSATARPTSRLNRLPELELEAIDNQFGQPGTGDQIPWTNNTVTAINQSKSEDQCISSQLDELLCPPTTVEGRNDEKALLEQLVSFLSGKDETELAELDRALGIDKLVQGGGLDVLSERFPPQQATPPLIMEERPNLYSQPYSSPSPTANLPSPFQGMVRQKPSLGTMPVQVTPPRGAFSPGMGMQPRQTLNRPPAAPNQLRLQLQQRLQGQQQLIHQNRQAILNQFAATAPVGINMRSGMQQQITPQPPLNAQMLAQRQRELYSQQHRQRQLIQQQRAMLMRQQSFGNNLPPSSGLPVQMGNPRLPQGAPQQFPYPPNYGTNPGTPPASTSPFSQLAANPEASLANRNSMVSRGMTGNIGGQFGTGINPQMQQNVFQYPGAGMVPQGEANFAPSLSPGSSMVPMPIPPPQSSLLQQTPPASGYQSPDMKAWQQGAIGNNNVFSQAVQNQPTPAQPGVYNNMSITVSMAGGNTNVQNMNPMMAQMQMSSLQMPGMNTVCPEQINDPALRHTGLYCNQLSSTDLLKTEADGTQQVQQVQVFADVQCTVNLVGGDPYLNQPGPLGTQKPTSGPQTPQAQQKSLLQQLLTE
Chain of Peroxisome proliferator-activated receptor gamma/Nuclear receptor coactivator 2 (P37231 whole entry): as the sequence (P37231 whole entry) above
Chain of Peroxisome proliferator-activated receptor gamma/Nuclear receptor coactivator 2 (Q15596 whole entry, further chain): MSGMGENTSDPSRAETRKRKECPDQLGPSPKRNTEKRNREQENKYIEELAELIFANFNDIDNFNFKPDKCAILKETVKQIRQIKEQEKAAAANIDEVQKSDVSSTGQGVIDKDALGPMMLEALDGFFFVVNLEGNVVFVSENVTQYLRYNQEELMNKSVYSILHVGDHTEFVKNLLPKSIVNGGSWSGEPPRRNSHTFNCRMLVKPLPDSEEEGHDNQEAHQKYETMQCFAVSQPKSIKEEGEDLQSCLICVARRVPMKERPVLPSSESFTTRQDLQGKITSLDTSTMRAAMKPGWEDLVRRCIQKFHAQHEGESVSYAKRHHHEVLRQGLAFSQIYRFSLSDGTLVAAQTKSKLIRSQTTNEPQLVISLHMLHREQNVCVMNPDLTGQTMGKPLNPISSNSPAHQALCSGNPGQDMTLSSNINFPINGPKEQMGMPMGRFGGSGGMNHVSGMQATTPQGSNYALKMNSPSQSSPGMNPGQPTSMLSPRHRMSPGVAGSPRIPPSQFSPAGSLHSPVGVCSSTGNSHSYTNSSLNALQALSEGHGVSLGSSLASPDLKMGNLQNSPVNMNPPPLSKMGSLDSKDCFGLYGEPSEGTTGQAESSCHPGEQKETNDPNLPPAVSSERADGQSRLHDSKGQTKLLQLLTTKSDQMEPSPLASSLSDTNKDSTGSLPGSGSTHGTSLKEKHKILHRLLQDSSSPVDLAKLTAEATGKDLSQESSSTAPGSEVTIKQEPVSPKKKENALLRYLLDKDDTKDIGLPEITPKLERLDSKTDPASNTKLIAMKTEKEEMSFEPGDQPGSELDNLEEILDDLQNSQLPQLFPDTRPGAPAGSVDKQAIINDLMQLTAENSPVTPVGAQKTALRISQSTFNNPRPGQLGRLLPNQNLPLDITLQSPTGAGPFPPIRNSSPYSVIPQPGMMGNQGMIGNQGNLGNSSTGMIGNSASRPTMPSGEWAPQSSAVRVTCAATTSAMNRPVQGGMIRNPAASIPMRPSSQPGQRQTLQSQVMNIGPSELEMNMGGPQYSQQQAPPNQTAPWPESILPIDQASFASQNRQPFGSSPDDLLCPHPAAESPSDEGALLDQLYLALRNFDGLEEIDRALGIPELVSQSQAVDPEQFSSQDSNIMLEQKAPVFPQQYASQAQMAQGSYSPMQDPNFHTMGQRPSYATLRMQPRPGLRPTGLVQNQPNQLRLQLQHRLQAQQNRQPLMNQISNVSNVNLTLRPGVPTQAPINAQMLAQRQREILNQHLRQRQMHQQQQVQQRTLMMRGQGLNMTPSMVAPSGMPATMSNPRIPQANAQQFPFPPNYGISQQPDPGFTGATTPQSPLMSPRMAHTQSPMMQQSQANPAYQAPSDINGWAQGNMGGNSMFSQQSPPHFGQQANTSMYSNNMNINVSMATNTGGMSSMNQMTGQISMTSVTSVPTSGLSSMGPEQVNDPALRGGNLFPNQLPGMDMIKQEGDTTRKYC

EC50 [1]: > 79.4 µM (not active)
EC50 [2]: > 79.4 µM (not active)
EC50 [3]: > 79.4 µM (inactive)
Structure (SMILES): COC(=O)Cc1c(C)c2c(O)cc(C)cc2oc1=O

EC50 [1]: 28.6 µM (not active)
EC50 [2]: > 79.4 µM (not active)
EC50 [3]: > 79.4 µM (inactive)
Structure (SMILES): Clc1cccc(-c2ccc(/C=N/c3ccc(N4CCOCC4)cc3)o2)c1

IC50 [4]: 11.8 µM (inactive)
Structure (SMILES): O=C(O)c1ccc(CSc2nnc(-c3cccnc3)n2-c2ccc(Br)cc2)cc1

AC50 (Cytochrome P450 3A4): inconclusive
AC50 (Cytochrome P450 2C19): inconclusive
Structure (SMILES): CCc1nc2cc(CC(=O)O)ccc2o1

AC50 (Cytochrome P450 3A4): inconclusive
AC50 (Cytochrome P450 2D6): 2 µM (inconclusive)
Structure (SMILES): CO/N=C(/CNC(=O)c1ccc(Cl)cc1Cl)c1ccc(Cl)cc1

IC50 (Caspase-3): 2.52 µM (active)
IC50 [5]: > 100 µM (inactive)
IC50 [7]: < 1.55 µM (active)
Structure (SMILES): COc1cccc(-c2nc3ccc([N+](=O)[O-])cc3o2)c1
IC50 [6]: > 100 µM (inactive)

AC50 (Cytochrome P450 2C9): inconclusive
AC50 (Cytochrome P450 3A4): inconclusive
AC50 (Cytochrome P450 2C19): inconclusive
Structure (SMILES): CCCN(CCC)CCc1cccc2c1CC(=O)N2 [ROPINIROLE]

Structure (SMILES): Nc1cc(S(=O)(=O)O)cc2cc(S(=O)(=O)O)c(/N=N/c3ccc(-c4ccc(/N=N/c5c(S(=O)(=O)O)cc6cc(S(=O)(=O)O)cc(N)c6c5O)cc4)cc3)c(O)c12
GI50 (SN12K1): > 100 µM (inactive)
GI50 (P388): > 100 µM (inactive)

Structure (SMILES): CSCCC(c1nnnn1C1CCCC1)N1CCC(n2c(O)nc3ccccc32)CC1 (configuration not stated)
IC50 [4]: 26.1 µM (inactive)

AC50 (Cytochrome P450 3A4): inconclusive
Structure (SMILES): COc1ccc(C(=O)NC(=S)NCc2ccccc2)cc1

Reference: ChEMBL document CHEMBL1201862, “PubChem BioAssay data set” (2004)
